Test results published in patent publication US20040166137A1, “Hetero-substituted benzimidazole compounds and antiviral uses thereof” (priority 2002, published 2004).
Where two headings read alike, the source gives them in different places.

What was measured:
[1] = XTT cytotoxicity assay on uninfected Hep2 cells; type: cell-based; settings: human
Experimental: Uninfected confluent monolayers (seeded at 2.2×10^4 cells/well) of Hep2 cells were grown in microtiter wells (96-well plates) in EMEM (Eagle Minimum Essential Medium w/o L-glutamine [Bio Whittaker Cat. No. 12-125F] with 3% fetal bovine serum (FBS; which had been heat inactivated for 30 minutes at 56° C.; Bio Whittaker Cat. No. 14-501F), antibiotics (penicillin/streptomycin; Bio Whittaker Cat. No. 17-602E) added at 1%, and glutamine added at 1% (complete EMEM). The plates were incubated for 24 hours and used for antiviral assays and cytotoxicity assays.
Cytotoxicity assays were conducted by first removing all medium from the well containing uninfected Hep2 cells, adding 100 μl complete EMEM, and then adding hetero-substituted benzimidazole compounds (eight 3-fold dilutions with 100 μM concentration as the highest final concentration). Complete EMEM (50 μl) was added to each well instead of virus and the plates were incubated in a CO2 incubator at 37° C. for 48 hours.
At 48 hours, the cytotoxicity assays were developed by adding to each well 50 μl of XTT (1 mg/ml in PBS) containing 0.01-0.02 mM of the electron coupling agent phenazine methosulfate (PMS). The plates were incubated for 2-4 hours at 37° C. and then read in a 96-well plate reader at 450 nm. Plotting the % average OD of treated wells compared to the cell control vs. compound concentration generated dose response curves. CC50 (50% inhibitory cytotoxic concentration) values for each compound were then calculated from these curves. […]

RSV = test: Antiviral assay (PRA): inhibition of RSV syncytial plaque formation on Hep2 cell monolayers; type: cell-based; settings: human respiratory syncytial virus, read-out: PRA (IC50)
Experimental: The lower the observed level of fusion, the greater the antiviral activity of the compound was determined to be. Uninfected confluent monolayers (seeded at 2.2×10^4 cells/well) of Hep2 cells were grown in microtiter wells (96-well plates) in EMEM (Eagle Minimum Essential Medium w/o L-glutamine [Bio Whittaker Cat. […] Bio Whittaker Cat. No. 14-[…]), antibiotics (penicillin/streptomycin; Bio Whittaker Cat. […] The plates were incubated for 24 hours and used for antiviral assays and cytotoxicity assays. To prepare Hep2 cells for addition to uninfected cells, cultures of […] infected Hep2 cells were washed with DPBS (Dulbecco's Phosphate Buffered Saline w/o calcium or magnesium; Bio Whittaker Cat. […] Gibco Life Technologies Cat. No. 15040-017). The cells were spun for 10 minutes and resuspended in 3% FBS. Cell counts were performed using a hemacytometer. Persistent cells were added to the uninfected Hep2 cells. The antiviral assay was conducted by first removing all medium from the wells containing uninfected Hep2 cells, adding 100 μl complete EMEM, then adding hetero-substituted benzimidazole compounds (eight 3-fold dilutions with 20 μM concentration as the highest final concentration) in 50 μl complete EMEM. Approximately 50 […] plaque forming units (PFU) of RSV in 50 μl was added per well and the plates were incubated in a CO2 incubator at 37° C. for 48 hours. Each plate contained uninfected control wells and infected untreated control wells for calculation of % inhibition (EC50) for each concentration. After incubation, cells in control wells were checked for fusion centers, medium was removed from the wells followed by addition to each well of either Crystal Violet stain or XTT. With respect to Crystal Violet, approximately 50μl 0.25% Crystal Violet stain in methanol was added to each well. The wells were rinsed immediately, to remove excess stain, and were allowed to dry. The number of syncytia per well were then counted, using a dissecting microscope. For antiviral assays at 48 hours post infection, cells in control wells were checked for syncytial plaques. Medium was removed from the wells followed by addition of approximately 50 Al Crystal Violet stain (0.25% Crystal Violet, 0.25% Giemsa dissolved in 10% formaldehyde, 70% methanol, and 20% H2O). The wells were incubated at room temperature for 5 minutes, rinsed with H2O to remove excess stain, and allowed to dry. The number of syncytia per well were counted using a dissecting microscope. The 50% inhibitory concentration (EC50) for each compound was calculated from the dose response curve. The compounds listed in Tables 1-2 have been screened for inhibitory activity against RSV.

[2] = HEp-2, Table 1, RSV-infected Hep2 cells, 48 hours, syncytia counted
[3] = HEp-2, Table 2, RSV-infected Hep2 cells, 48 hours, syncytia counted

| Compound | CC50 at 48 h ([1]; Table 1, uninfected Hep2 cells, 48 hours, read-out: XTT (CC50)) | IC50 (RSV; HEp-2, 48 h) | CC50 at 48 h [1] | IC50 (RSV; [2]) | IC50 (RSV; [3]) |
| --- | --- | --- | --- | --- | --- |
| OCCN(CCO)CCNCc1nc2cccnc2n1Cc1nc2ccccc2[nH]1 [compound 1, 2-[(2-{[3-(1H-Benzoimidazol-2-ylmethyl)-3H-imidazo[4,5-b]pyridin-2-ylmethyl]-amino}-ethyl)-(2-hydroxy-ethyl)-amino]-ethanol] | ≥ 100000 nM | 160 nM |  |  |  |
| c1ccc2[nH]c(Cn3c(CNCCN4CCOCC4)nc4cccnc43)nc2c1 [compound 2, [3-(1H-Benzoimidazol-2-ylmethyl)-3H-imidazo[4,5-b]pyridin-2-ylmethyl]-(2-morpholin-4-yl-ethyl)-amine] |  |  | ≥ 100000 nM | 240 nM |  |
| COCCN(C)Cc1nc2cccnc2n1Cc1nc2ccccc2[nH]1 [compound 3, [3-(1H-Benzoimidazol-2-ylmethyl)-3H-imidazo[4,5-b]pyridin-2-ylmethyl]-(2-methoxy-ethyl)-methyl-amine] |  |  | ≥ 100000 nM | 150 nM |  |
| c1ccc2[nH]c(Cn3c(CNCCCN4CCOCC4)nc4cccnc43)nc2c1 [compound 4, [3-(1H-Benzoimidazol-2-ylmethyl)-3H-imidazo[4,5-b]pyridin-2-ylmethyl]-(3-morpholin-4-yl-propyl)-amine] |  |  | ≥ 100000 nM | 190 nM |  |
| CN1CCN(CCCNCc2nc3cccnc3n2Cc2nc3ccccc3[nH]2)CC1 [compound 5, [3-(1H-Benzoimidazol-2-ylmethyl)-3H-imidazo[4,5-b]pyridin-2-ylmethyl]-[3-(4-methyl-piperazin-1-yl)-propyl]-amine] |  |  | ≥ 100000 nM | 9 nM |  |
| OCCN(CCO)CCCNCc1nc2cccnc2n1Cc1nc2ccccc2[nH]1 [compound 6, 2-[(3-{[3-(1H-Benzoimidazol-2-ylmethyl)-3H-imidazo[4,5-b]pyridin-2-ylmethyl]-amino}-propyl)-(2-hydroxy-ethyl)-amino]-ethanol] |  |  | ≥ 100000 nM | 190 nM |  |
| c1ccc2[nH]c(Cn3c(CNC4CCCC4)nc4cccnc43)nc2c1 [compound 7, [3-(1H-Benzoimidazol-2-ylmethyl)-3H-imidazo[4,5-b]pyridin-2-ylmethyl]-cyclopentyl-amine] |  |  | ≥ 100000 nM | 4 nM |  |
| CC(C)N(Cc1ccccc1)Cc1nc2cccnc2n1Cc1nc2ccccc2[nH]1 [compound 8, [3-(1H-Benzoimidazol-2-ylmethyl)-3H-imidazo[4,5-b]pyridin-2-ylmethyl]-benzyl-isopropyl-amine] |  |  | ≥ 100000 nM | 5 nM |  |
| CC(C)N(C)Cc1nc2cccnc2n1Cc1nc2ccccc2[nH]1 [compound 9, [3-(1H-Benzoimidazol-2-ylmethyl)-3H-imidazo[4,5-b]pyridin-2-ylmethyl]-isopropyl-methyl-amine] |  |  | ≥ 100000 nM | 3 nM |  |
| CC(C)N(Cc1nc2cccnc2n1Cc1nc2ccccc2[nH]1)C(C)C [compound 12, [3-(1H-Benzoimidazol-2-ylmethyl)-3H-imidazo[4,5-b]pyridin-2-ylmethyl]-diisopropyl-amine] |  |  | ≥ 100000 nM | 5 nM |  |
| c1ccc2[nH]c(Cn3c(CN4CCOCC4)nc4cccnc43)nc2c1 [compound 13, 3-(1H-Benzoimidazol-2-ylmethyl)-2-morpholin-4-ylmethyl-3H-imidazo[4,5-b]pyridine] |  |  | ≥ 100000 nM |  | 1 nM |
| FC(F)(F)c1ccc(N2CCN(Cc3nc4cccnc4n3Cc3nc4ccccc4[nH]3)CC2)cc1 [compound 14, 3-(1H-Benzoimidazol-2-ylmethyl)-2-[4-(4-trifluoromethyl-phenyl)-piperazin-1-ylmethyl]-3H-imidazo[4,5-b]pyridine] |  |  | ≥ 100000 nM |  | 5 nM |
| Cn1cnc(S(=O)(=O)N2CCN(Cc3nc4cccnc4n3Cc3nc4ccccc4[nH]3)CC2)c1 [compound 19, 3-(1H-Benzoimidazol-2-ylmethyl)-2-[4-(1-methyl-1H-imidazole-4-sulfonyl)-piperazin-1-ylmethyl]-3H-imidazo[4,5-b]pyridine] |  |  | ≥ 100000 nM |  |  |
